Reference: US12077503B2, “Substituted cyclic amides and their use as herbicides” (FMC CORPORATION, priority 2015, dated 2024)

Key:
Assay in all cases: Test C preemergence
Assay type in all cases: in vivo
[1] = system: Galium (catchweed bedstraw, Galium aparine); settings: for Plant response rating, Galium: scale 0 to 100, 0 no effect, 100 complete control
Summary of the method: (§1)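 After treatment with surfactant-containing formulations, either preemergence to seeds in loam-sand soil or postemergence to potted seedlings at 2–18 cm, plants were kept 13–15 d in a greenhouse. Observers then compared them with controls and assigned ratings, 0 signifying no effect and 100 complete control.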

[2] = system: barnyardgrass (Echinochloa crus-galli); settings: for Plant response rating, Barnyardgrass: scale 0 to 100, 0 no effect, 100 complete control
Summary of the method: as §1

[3] = system: blackgrass (Alopecurus myosuroides); settings: for Plant response rating, Blackgrass: scale 0 to 100, 0 no effect, 100 complete control
Summary of the method: as §1

corn (Zea mays) = settings: for Plant response rating, Corn: scale 0 to 100, 0 no effect, 100 complete control
Summary of the method: as §1

[4] = system: crabgrass, large (large crabgrass, Digitaria sanguinalis); settings: for Plant response rating, Crabgrass, Large: scale 0 to 100, 0 no effect, 100 complete control
Summary of the method: as §1

[5] = system: foxtail, giant (giant foxtail, Setaria faberii); settings: for Plant response rating, Foxtail, Giant: scale 0 to 100, 0 no effect, 100 complete control
Summary of the method: as §1

[6] = system: johnsongrass (Sorghum halepense); settings: for Plant response rating, Johnsongrass: scale 0 to 100, 0 no effect, 100 complete control
Summary of the method: as §1

[7] = system: morningglory (Ipomoea coccinea); settings: for Plant response rating, Morningglory: scale 0 to 100, 0 no effect, 100 complete control
Summary of the method: as §1

[8] = system: nutsedge, yellow (yellow nutsedge, Cyperus esculentus); settings: for Plant response rating, Nutsedge, Yellow: scale 0 to 100, 0 no effect, 100 complete control
Summary of the method: as §1

[9] = system: oilseed rape (Brassica napus); settings: for Plant response rating, Oilseed Rape: scale 0 to 100, 0 no effect, 100 complete control
Summary of the method: as §1

[10] = system: pigweed (Amaranthus retroflexus); settings: for Plant response rating, Pigweed: scale 0 to 100, 0 no effect, 100 complete control
Summary of the method: as §1

[11] = system: ragweed (common ragweed, Ambrosia elatior); settings: for Plant response rating, Ragweed: scale 0 to 100, 0 no effect, 100 complete control
Summary of the method: as §1

[12] = system: ryegrass, Italian (Italian ryegrass, Lolium multiflorum); settings: for Plant response rating, Ryegrass, Italian: scale 0 to 100, 0 no effect, 100 complete control
Summary of the method: as §1

soybean (Glycine max) = settings: for Plant response rating, Soybean: scale 0 to 100, 0 no effect, 100 complete control
Summary of the method: as §1

[13] = system: velvetleaf (Abutilon theophrasti); settings: for Plant response rating, Velvetleaf: scale 0 to 100, 0 no effect, 100 complete control
Summary of the method: as §1

[14] = system: waterhemp (common waterhemp, Amaranthus rudis); settings: for Plant response rating, Waterhemp: scale 0 to 100, 0 no effect, 100 complete control
Summary of the method: as §1

[15] = system: wheat (winter wheat, Triticum aestivum); settings: for Plant response rating, Wheat: scale 0 to 100, 0 no effect, 100 complete control
Summary of the method: as §1

[16] = 31 g ai/ha, 0 is no effect, 100 is complete control

CN1CC(c2cc(F)cc(F)c2)C(C(=O)Nc2ccc(F)c(F)c2F)C1=O (centres unmarked) [Compound 646]
Plant response rating (scale of 0 to 100), Galium [1, 16]: 90
Plant response rating, Galium ([1]; 62 g ai/ha): 90
Plant response rating, Galium ([1]; 125 g ai/ha): 90
Plant response rating, Galium ([1]; 250 g ai/ha): 100
Plant response rating (scale of 0 to 100), Barnyardgrass [2, 16]: 90
Plant response rating, Barnyardgrass ([2]; 62 g ai/ha): 95
Plant response rating, Barnyardgrass ([2]; 125 g ai/ha): 98
Plant response rating, Barnyardgrass ([2]; 250 g ai/ha): 98
Plant response rating (scale of 0 to 100), Blackgrass [3, 16]: 80
Plant response rating, Blackgrass ([3]; 62 g ai/ha): 80
Plant response rating, Blackgrass ([3]; 125 g ai/ha): 85
Plant response rating, Blackgrass ([3]; 250 g ai/ha): 98
Plant response rating (scale of 0 to 100), Corn (corn (Zea mays); [16]): 35
Plant response rating, Corn (corn (Zea mays); 62 g ai/ha): 45
Plant response rating, Corn (corn (Zea mays); 125 g ai/ha): 65
Plant response rating, Corn (corn (Zea mays); 250 g ai/ha): 75
Plant response rating (scale of 0 to 100), Crabgrass, Large [4, 16]: 95
Plant response rating, Crabgrass, Large ([4]; 62 g ai/ha): 95
Plant response rating, Crabgrass, Large ([4]; 125 g ai/ha): 98
Plant response rating, Crabgrass, Large ([4]; 250 g ai/ha): 100
Plant response rating (scale of 0 to 100), Foxtail, Giant [5, 16]: 95
Plant response rating, Foxtail, Giant ([5]; 62 g ai/ha): 95
Plant response rating, Foxtail, Giant ([5]; 125 g ai/ha): 95
Plant response rating, Foxtail, Giant ([5]; 250 g ai/ha): 98
Plant response rating (scale of 0 to 100), Johnsongrass [6, 16]: 35
Plant response rating, Johnsongrass ([6]; 62 g ai/ha): 40
Plant response rating, Johnsongrass ([6]; 125 g ai/ha): 85
Plant response rating, Johnsongrass ([6]; 250 g ai/ha): 90
Plant response rating (scale of 0 to 100), Morningglory [7, 16]: 0
Plant response rating, Morningglory ([7]; 62 g ai/ha): 0
Plant response rating, Morningglory ([7]; 125 g ai/ha): 0
Plant response rating, Morningglory ([7]; 250 g ai/ha): 10
Plant response rating (scale of 0 to 100), Nutsedge, Yellow [8, 16]: 0
Plant response rating, Nutsedge, Yellow ([8]; 62 g ai/ha): 0
Plant response rating, Nutsedge, Yellow ([8]; 125 g ai/ha): 0
Plant response rating, Nutsedge, Yellow ([8]; 250 g ai/ha): 35
Plant response rating (scale of 0 to 100), Oilseed Rape [9, 16]: 15
Plant response rating, Oilseed Rape ([9]; 62 g ai/ha): 80
Plant response rating, Oilseed Rape ([9]; 125 g ai/ha): 85
Plant response rating, Oilseed Rape ([9]; 250 g ai/ha): 90
Plant response rating (scale of 0 to 100), Pigweed [10, 16]: 0
Plant response rating, Pigweed ([10]; 62 g ai/ha): 10
Plant response rating, Pigweed ([10]; 125 g ai/ha): 65
Plant response rating, Pigweed ([10]; 250 g ai/ha): 75
Plant response rating (scale of 0 to 100), Ragweed [11, 16]: 20
Plant response rating, Ragweed ([11]; 62 g ai/ha): 30
Plant response rating, Ragweed ([11]; 125 g ai/ha): 60
Plant response rating, Ragweed ([11]; 250 g ai/ha): 70
Plant response rating (scale of 0 to 100), Ryegrass, Italian [12, 16]: 30
Plant response rating, Ryegrass, Italian ([12]; 62 g ai/ha): 20
Plant response rating, Ryegrass, Italian ([12]; 125 g ai/ha): 80
Plant response rating, Ryegrass, Italian ([12]; 250 g ai/ha): 90
Plant response rating (scale of 0 to 100), Soybean (soybean (Glycine max); [16]): 0
Plant response rating, Soybean (soybean (Glycine max); 62 g ai/ha): 0
Plant response rating, Soybean (soybean (Glycine max); 125 g ai/ha): 10
Plant response rating, Soybean (soybean (Glycine max); 250 g ai/ha): 0
Plant response rating (scale of 0 to 100), Velvetleaf [13, 16]: 15
Plant response rating, Velvetleaf ([13]; 62 g ai/ha): 25
Plant response rating, Velvetleaf ([13]; 125 g ai/ha): 55
Plant response rating, Velvetleaf ([13]; 250 g ai/ha): 60
Plant response rating (scale of 0 to 100), Waterhemp [14, 16]: 65
Plant response rating, Waterhemp ([14]; 62 g ai/ha): 60
Plant response rating, Waterhemp ([14]; 125 g ai/ha): 75
Plant response rating, Waterhemp ([14]; 250 g ai/ha): 85
Plant response rating (scale of 0 to 100), Wheat [15, 16]: 35
Plant response rating, Wheat ([15]; 62 g ai/ha): 80
Plant response rating, Wheat ([15]; 125 g ai/ha): 85
Plant response rating, Wheat ([15]; 250 g ai/ha): 90
